Numbered stars: 1 amine (or outer) side, 2 acyl side, 3 side chain; on linkers, the order of the positions; unused ones are H or OH. Square brackets hold non-standard residues; d marks the D form. Side chains are listed from the residue outwards. Peptide text beside a SMILES is read from it. * marks the point of attachment. C18 diacid = O=C(O)CCCCCCCCCCCCCCCCC(=O)*; γGlu = O=C(O)[C@H](CCC(=O)[*:2])N[*:1]; PEG2 = NCCOCCOCCC(=O)O
Target: human GLP-1R (Homo sapiens, UniProt P43220)
Assay: CRE-driven luciferase reporter
Format: cell-based

Sequence of human GLP-1R (P43220 24-463): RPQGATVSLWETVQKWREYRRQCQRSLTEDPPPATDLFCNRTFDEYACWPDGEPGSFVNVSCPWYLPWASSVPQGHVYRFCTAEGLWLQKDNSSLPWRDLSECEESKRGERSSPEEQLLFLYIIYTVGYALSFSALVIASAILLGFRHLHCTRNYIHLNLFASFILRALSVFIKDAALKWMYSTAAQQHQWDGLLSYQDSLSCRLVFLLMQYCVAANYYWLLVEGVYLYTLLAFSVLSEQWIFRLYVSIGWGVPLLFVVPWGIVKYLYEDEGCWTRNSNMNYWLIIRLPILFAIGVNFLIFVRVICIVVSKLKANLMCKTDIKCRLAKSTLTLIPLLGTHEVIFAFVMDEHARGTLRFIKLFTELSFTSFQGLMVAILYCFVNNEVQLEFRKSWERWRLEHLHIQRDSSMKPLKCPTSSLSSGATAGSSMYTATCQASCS

Structure (SMILES)	EC50 [nM]
CC(C)C[C@H](NC(=O)[C@H](CC(C)C)NC(=O)[C@H](Cc1c[nH]c2ccccc12)NC(=O)[C@H](CCC(=O)O)NC(=O)[C@@H](NC(=O)[C@H](Cc1ccccc1)NC(=O)[C@H](CC(=O)O)NC(=O)[C@H](Cc1c[nH]cn1)NC(=O)[C@H](C)NC(=O)[C@H](C)NC(=O)[C@H](CCCCNC(=O)CCOCCOCCNC(=O)CCOCCOCCNC(=O)CC[C@H](NC(=O)CCCCCCCCCCCCCCCCC(=O)O)C(=O)O)NC(=O)[C@H](CO)NC(=O)[C@H](CC(=O)O)NC(=O)[C@H](CC(C)C)NC(=O)[C@H](Cc1ccc(O)cc1)NC(=O)[C@H](CCCCN)NC(=O)[C@H](CO)NC(=O)[C@H](Cc1ccc(O)cc1)NC(=O)[C@H](CC(=O)O)NC(=O)[C@H](CO)NC(=O)[C@@H](NC(=O)[C@H](Cc1ccccc1)NC(=O)[C@@H](NC(=O)CNC(=O)[C@H](CCC(N)=O)NC(=O)[C@@H](CO)NC(=O)[C@@H](N)Cc1c[nH]cn1)[C@@H](C)O)[C@@H](C)O)C(C)C)C(=O)N[C@@H](CCCNC(=N)N)C(=O)N[C@@H](C)C(N)=O [TA002] (H-H[dS]QGTFTSDYSKYLDSK([PEG2-PEG2-γGlu-C18 diacid])AAHDFVEWLLRA-NH2)	0.32
CC(C)C[C@H](NC(=O)[C@H](CC(C)C)NC(=O)[C@H](Cc1c[nH]c2ccccc12)NC(=O)[C@H](CCC(=O)O)NC(=O)[C@@H](NC(=O)[C@H](Cc1ccccc1)NC(=O)[C@H](CC(=O)O)NC(=O)[C@H](Cc1c[nH]cn1)NC(=O)[C@H](C)NC(=O)[C@H](C)NC(=O)[C@H](CCCCNC(=O)CCOCCOCCNC(=O)CCOCCOCCNC(=O)CC[C@H](NC(=O)CCCCCCCCCCCCCCCCC(=O)O)C(=O)O)NC(=O)[C@H](CO)NC(=O)[C@H](CC(=O)O)NC(=O)[C@H](CC(C)C)NC(=O)[C@H](Cc1ccc(O)cc1)NC(=O)[C@H](CCCCN)NC(=O)[C@H](CO)NC(=O)[C@H](Cc1ccc(O)cc1)NC(=O)[C@H](CC(=O)O)NC(=O)[C@H](CO)NC(=O)[C@@H](NC(=O)[C@H](Cc1ccccc1)NC(=O)[C@@H](NC(=O)CNC(=O)[C@H](CCC(N)=O)NC(=O)[C@@H](CO)NC(=O)[C@@H](N)Cc1c[nH]cn1)[C@@H](C)O)[C@@H](C)O)C(C)C)C(=O)N[C@@H](CC(N)=O)C(=O)NCC(=O)NCC(=O)N1CCC[C@H]1C(=O)N[C@@H](CO)C(=O)N[C@@H](CO)C(=O)NCC(=O)N[C@@H](C)C(=O)N1CCC[C@H]1C(=O)N1CCC[C@H]1C(=O)N1CCC[C@H]1C(=O)N[C@@H](CO)C(N)=O [TA004] (H-H[dS]QGTFTSDYSKYLDSK([PEG2-PEG2-γGlu-C18 diacid])AAHDFVEWLLNGGPSSGAPPPS-NH2)	0.19
CCCCCCCCCCCCCCCCCC(=O)NCCOCCOCCC(=O)NCCOCCOCCC(=O)NCCCC[C@H](NC(=O)[C@H](CC(=O)O)NC(=O)[C@H](CO)NC(=O)[C@@H](NC(=O)[C@H](Cc1ccccc1)NC(=O)[C@@H](NC(=O)CNC(=O)[C@H](CCC(N)=O)NC(=O)[C@@H](CO)NC(=O)[C@@H](N)Cc1c[nH]cn1)[C@@H](C)O)[C@@H](C)O)C(=O)N[C@@H](CO)C(=O)N[C@@H](CCCCN)C(=O)N[C@@H](Cc1ccc(OS(=O)(=O)F)cc1)C(=O)N[C@@H](CC(C)C)C(=O)N[C@@H](CC(=O)O)C(=O)NC(C)(C)C(=O)N[C@@H](CCCNC(=N)N)C(=O)N[C@@H](CCCNC(=N)N)C(=O)N[C@@H](C)C(=O)N[C@@H](CCC(N)=O)C(=O)N[C@@H](CC(=O)O)C(=O)N[C@@H](Cc1ccccc1)C(=O)N[C@H](C(=O)N[C@@H](CCC(N)=O)C(=O)N[C@@H](Cc1c[nH]c2ccccc12)C(=O)N[C@@H](CC(C)C)C(=O)N[C@@H](CCSC)C(=O)N[C@@H](CC(N)=O)C(=O)N[C@H](C(=O)NCC(=O)NCC(=O)N1CCC[C@H]1C(=O)N[C@@H](CO)C(=O)N[C@@H](CO)C(=O)NCC(=O)N[C@@H](C)C(=O)N1CCC[C@H]1C(=O)N1CCC[C@H]1C(=O)N1CCC[C@H]1C(=O)N[C@@H](CO)C(N)=O)[C@@H](C)O)C(C)C [TA006]	2.5
